Tested on: Hypothyroid rats
Assay: Cardiac performance (Millar direct catheter system) in PTU-fed hypothyroid rats after 4 days of treatment
Format: in vivo, Male S.D. rats
Description: Male S.D. rats (7 wks old) were rendered hypothyroid by being fed PTU diet (n 48; iodine deficient, 0.15% propylthiouracil) or normal chow (n=8) for 2 weeks. PTU fed rats were then separated into weight-matched groups the day prior to inception of the study, and treated for 4 days with vehicle (0.05 mL/100 g BW i.p.; 20% Cremophor EL; 20% ethanol; 60% H2O) or T3 (3 μg/kg) and scriptaid (1.5, 15 mg/kg) or its vehicle (100% DMSO; 0.04 mL/100 g BW i.p.). Because of differential pharmacodynamics of T3 and scriptaid, each animal received T3 or its vehicle at least 3 hours prior to receiving scriptaid or its vehicle. Following 4 days of treatment, core temperature, systemic hemodynamics, and cardiac performance data were collected under isoflurane anesthesia using the Millar direct catheter system no less two hours following scriptaid administration. At the conclusion of the experiment the animals were sacrificed, and blood and tissues collected for morphological and biochemical analysis. Hypothyroid rats have impaired systolic and diastolic cardiac performance relative to euthyroid control rats, while scriptaid alone exerted no effects on either systolic or diastolic cardiac performance.

[1] = scriptaid (1.5, 15 mg/kg i.p.) coadministered with T3 (3 μg/kg), hypothyroid rats, compared with T3 alone

Compound	maximal positive and negative dP/dt (indices of systolic and diastolic performance) (T3 3 μg/kg, hypothyroid (PTU diet) rats, FIG. 1)	tau (an index of myocardial relaxation) (T3 3 μg/kg, hypothyroid (PTU diet) rats, FIG. 2)	maximal +/−dP/dt [1]	tau [1]	systolic or diastolic cardiac performance (scriptaid alone (1.5, 15 mg/kg i.p.), hypothyroid (PTU diet) rats, isoflurane anesthesia)
N[C@@H](Cc1cc(I)c(Oc2ccc(O)c(I)c2)c(I)c1)C(=O)O [T3, triiodothyronine]	increased	improved			
O=C(CCCCCN1C(=O)c2cccc3cccc(c23)C1=O)NO [scriptaid, 6-(1,3-Dioxo-1H,3H-benzo[de]isoquinolin-2-yl)-hexanoic acid hydroxyamide]			significantly enhanced the effects of T3 treatment	significantly enhanced the effects of T3 treatment	no effects

Reference: patent US20090076021A1, “THERAPEUTIC COMBINATIONS AND METHODS FOR CARDIOVASCULAR IMPROVEMENT AND TREATING CARDIOVASCULAR DISEASE” (priority 2006, published 2009)
